{
  "source": "patent US7867707B2",
  "about": "“Method for detecting analytes in a sample” (Evotec AG, priority 2004, dated 2011)",
  "system": "c-fos mRNA",
  "experiment": "Expression of c-fos mRNA in HepG2 cells, bead-based confocal detection with detection/capture oligonucleotides",
  "format": "cell-based",
  "settings": "100 nM PMA, 24 μl of lysate, using the calibration of example 1a",
  "procedure": "Fully automated dual-channel confocal imaging was performed with two independent cooled CCD detectors. Excitation wavelengths were 532 nm and 633 nm, a dichroic beam splitter with 630 nm was used and emission filters were 565/50 nm and 690/40 nm. Laser power was […] for both wavelengths, measured at the entrance of the objective. Exposure times were usually in the range of 500-1000 ms.\nThe analysis of the images was performed with image analysis software as follows. Segmentation of the beads from the background was performed on a pixel-basis in the reference image. […] A mask of these rings corresponding to detected beads was generated from the reference image. This mask was applied to the signal image (see FIG. 6, right picture). Areas within the outer boundary of the ring were evaluated for fluorescence intensity stemming from the DO-analyte-CO complex bound to the bead. […] Such local background intensity was then subtracted from the signal intensity.\nThe final result was the mean fluorescence intensity/bead pixel of the signal image. In general, the intensity was averaged over all correctly detected beads of the image. As already mentioned, images of sedimented beads were taken. The sedimented beads were usually comprised in wells of micro- or nanotiter plates and in some cases, several images were taken of each well. […]",
  "data": [
    {"compound": "CCCCCCCCCCCCCC(=O)O[C@@H]1[C@@H](C)[C@@]2(O)[C@@H](C=C(CO)C[C@]3(O)C(=O)C(C)=C[C@@H]23)[C@@H]2C(C)(C)[C@]12OC(C)=O", "note": "[PMA, Phorbol 12-myristate 13-acetate]", "values": [
      {"measurement": "c-fos mRNA copy number", "value": "3.03*10^6 copies mRNA/well"}
    ]}
  ]
}
